Source: patent publication US11261179B2, “Small molecules” (University of Dundee, priority 2017, dated 2022)

Legend:
[1] = biological target: pVHL19 (VCB complex: VHL with Elongin B and Elongin C) (Homo sapiens, UniProt P40337); experiment: ITC titration against VCB, short VHL isoform; assay type: binding; conditions: for Kd / ΔG / ΔH / α (cooperativity/avidity) / −TΔS / n (stoichiometry): ITC; for Kd / ΔG / ΔH / α (cooperativity/avidity) / −TΔS: pVHL19; for n (stoichiometry): pVHL19, 25° C.; for binding to VCB detected by ITC: ITC against VCB
Experimental: Titrations were performed on an ITC200 micro-calorimeter (GE Healthcare). […] The final DMSO concentration was 0.15% v/v. VBC protein experiments were carried out in a buffer containing 20 mM Bis-tris propane, 150 mM NaCl, 1 mM TCEP, 0.15% v/v DMSO, pH 7.4. The titrations consisted of 19 injections of 2 μL compounds solution (150 μM, in the syringe) at a rate of 2 s/μL at 120 s time intervals into the VCB protein solution (20 μM, in the cell). An initial injection of compound solution (0.4 μL) was made and discarded during data analysis. All experiments were performed at 25° C., whilst stirring the syringe at 600 rpm. The data were fitted to a single binding site model to obtain the stoichiometry n, the dissociation constant Kd and the enthalpy of binding ΔH using the Microcal LLC ITC200 Origin software provided by the manufacturer.

[2] = system: HIF-1α / hydroxylated HIF-1α (Hdy-HIF-1α); experiment: Western blot of HIF-1α and Hdy-HIF-1α levels in HeLa cells; assay type: cell-based, Human
Experimental: (§1) For single time point treatment experiments, cells were transferred in 6-well plates with 5×10^5 cells per well in 2 ml media in order to achieve 80% confluence the following day. Stock concentrations of compounds were prepared by solubilizing the powder in 100% v/v DMSO to the final desired stock concentration.
(§2) On the day of treatment, all compound samples were prepared as 100-fold concentrated compound solution using DMEM just before treatment. The experiment samples (20 μL) were added to the 6 well plate containing 2 ml of media. The final DMSO concentration was 0.1% v/v. Cells were incubated at 37° C. and 5% CO2 for the desired time before harvesting.
(§3) For time dependent treatment, cells were transferred in 6-well plates with 3×10^5 cells per well in 2 ml media. Samples were prepared as detailed above or the single time point experiments. Treatment was conducted at given time points prior to harvest.
(§4) Cells were lysed in lysis buffer (20 mM Tris pH 8, 150 mM NaCl, 1% Triton x100) and a protease inhibitor cocktail (Roche) per 10 ml buffer. For protein extracts, the dishes were placed on ice. The media was aspirated and the tissue layer washed twice with ice-cold phosphate buffer saline (PBS). Lysis buffer (120 μl) was added and the cells detached from the surface with a cell scraper. After removal of the insoluble fraction by centrifugation, the protein concentration of the supernatant was determined by Pierce™ Coomassie (Bradford) Protein Assay Kit. Protein extracts were fractionated by SDS-PAGE on 4-12% Tris-Acetate NuPage® Novex® (Life Technologies) polyacrylamide gels and transferred to a nitrocellulose membrane using wet transfer. The membrane was then blocked with 5% w/v Bovine serum albumin (BSA) in Tris-buffered saline (TBS) with 0.1% w/v Tween-20. For detecting proteins the following primary antibodies in the given concentrations were used: anti-β-Actin (Cell Signaling Technology, 4970S, 13E5) 1:2000, anti-VHL (Cell Signaling Technology, #68547) 1:1000, anti-Hif-1α (BD Biosciences, 610959, clone 54) 1:1000, anti-hydroxy-HIF-1α (Hyp564) (Cell Signaling Techonology; #3434) 1:1000, anti-PHD2 (Bethyl Laboratories; A300-322A) 1:1000, anti-PHD3 (Bethyl Laboratories; A300-327A) 1:1000, anti-CRBN (Proteintech; 11435-1-AP) 1:1000.
(§5) Following incubation with a horseradish peroxidase-conjugated secondary antibody (Cell Signaling Technology), the signal was developed using enhanced chemiluminescence (ECL) Western Blotting Detection Kit (Amersham) on Amersham Hyperfilm ECL film (Amersham).
Band quantification was performed using ImageJ software and reported as relative amount as ratio of the each protein band relative to the lane's loading control. The values obtained were then normalized to 0.1% DMSO vehicle control.

VCB complex = VCB complex (Homo sapiens, UniProt P40337); experiment: Size exclusion chromatography of VCB complex formation; assay type: binding; conditions: SEC, VCB 50 μM, compound 30 μM
Experimental: SEC experiments were carried out in a AKTA pure system (GE Healthcare) at room temperature. The oligomeric state of the VCB complex in solution was analyzed by gel filtration in a buffer containing 20 mM Bis-Tris (pH 7), 150 mM NaCl and 1 mM 1,4-dithiothreitol (DTT) using a Superdex 200 Increase 10/300 GL column (GE Healthcare) calibrated with globular proteins of known molecular weight (GE Healthcare, 28-4038-41/42). […] Sample volume for each injection was 200 μL, and the flow rate was 0.5 mL/min. Peak elution was monitored using ultraviolet absorbance at 280 nm.

[3] = biological target: T1, pVHL30 (long isoform of VHL) (Homo sapiens, UniProt P40337); experiment: Western blot of VHL levels in HeLa cells; assay type: cell-based; conditions: 1 μM, 10 h
T1 construct: endogenous in cells; host or cells: HeLa
Experimental: as §1, §2, §3
Cells were transferred in 6-well plates with 5×10^5 cells per well in 2 ml media in order to achieve 80% confluence the day after. At t=0, MLN4924 was added into the desired wells at 3 μM final concentration and 0.1% v/v of DMSO. DMSO (0.1% v/v final conc.) was added to the remaining wells in order to match identical conc. of vehicle in all wells. At t=3 h, MG 132 was added into the desired wells at 50 μM final conc. and 0.1% v/v of DMSO. DMSO (0.1% v/v final conc.) was added to the remaining wells in order to achieve the same conc. of vehicle in all the wells. […] DMSO (0.1% v/v final conc.) was added to the remaining wells in order to obtain the same conc. of vehicle in all the wells. The total final concentration of DMSO was therefore 0.3% v/v. Plates were incubated for 4 h at 37° C. and 5% CO2 before harvesting.
Cells were transferred in 6-well plates with 5×10^5 cells per well in 2 ml media in order to achieve 80% confluence the day after. […] Plates were incubated for the desired time at 37° C. and 5% CO2 before harvesting.
For this experiments, cells were transferred in 6-well plates with 5×10^5 cells per well in 2 ml media in order to achieve 80% confluence the day after. […] Plates were incubated for the desired time at 37° C. and 5% CO2 before harvesting.
as §4, §5
Band quantification was performed using ImageJ software and reported as relative amount as ratio of the each protein band relative to the lane's loading control. […]

Chain of pVHL19 (VCB complex: VHL with Elongin B and Elongin C) (P40337 54-213): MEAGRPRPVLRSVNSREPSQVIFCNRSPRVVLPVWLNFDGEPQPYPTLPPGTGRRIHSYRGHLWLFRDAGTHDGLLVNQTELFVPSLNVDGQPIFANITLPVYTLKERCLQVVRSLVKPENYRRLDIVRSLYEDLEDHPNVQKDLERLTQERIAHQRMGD
Chain of pVHL19 (VCB complex: VHL with Elongin B and Elongin C) (Q15370 1-104 partner limits assumed): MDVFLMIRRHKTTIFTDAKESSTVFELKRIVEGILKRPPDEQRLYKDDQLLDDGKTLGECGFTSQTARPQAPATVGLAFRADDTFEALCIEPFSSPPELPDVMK
Chain of pVHL19 (VCB complex: VHL with Elongin B and Elongin C) (Q15369 17-112 partner limits assumed): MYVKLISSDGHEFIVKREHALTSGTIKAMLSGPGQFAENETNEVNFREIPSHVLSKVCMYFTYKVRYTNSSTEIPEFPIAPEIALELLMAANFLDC
T1 sequence (P40337 whole entry, canonical isoform): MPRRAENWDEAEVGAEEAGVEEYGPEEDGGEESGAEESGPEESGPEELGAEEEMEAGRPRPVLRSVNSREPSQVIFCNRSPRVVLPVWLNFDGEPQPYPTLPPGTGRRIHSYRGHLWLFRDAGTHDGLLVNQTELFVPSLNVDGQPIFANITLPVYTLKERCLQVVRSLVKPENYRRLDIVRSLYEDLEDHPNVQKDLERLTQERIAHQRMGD
Chain of VCB complex (P40337 54-213 limits assumed): as the sequence (P40337 54-213) above
Chain of VCB complex (Q15370 1-104 partner limits assumed): as the sequence (Q15370 1-104 partner limits assumed) above
Chain of VCB complex (Q15369 17-112 partner limits assumed): as the sequence (Q15369 17-112 partner limits assumed) above

Row | Compound | Kd [1] [nM] | ΔG [1] [kcal/mol] | ΔH [1] [kcal/mol] | α (cooperativity/avidity) [1] | −TΔS [1] [kcal/mol] | n (stoichiometry) [1] | protein levels of Hdy-HIF-1α ([2]; HeLa, 1 μM, 10 h) | concentration at which active in cells ([2]; cells) [µM] | shift of VCB peak / ternary complex formation (VCB complex) | depletion/degradation of VHL (pVHL30) [3] | binding to VCB detected by ITC [1]
1 | Cc1ncsc1-c1ccc(CNC(=O)[C@@H]2C[C@@H](O)CN2C(=O)[C@@H](NC(=O)COCCOCCOCCOCCOCCOc2cc(-c3scnc3C)ccc2CNC(=O)[C@@H]2C[C@@H](O)CN2C(=O)[C@@H](NC(=O)C2(C#N)CC2)C(C)(C)C)C(C)(C)C)cc1 [CMP113, (2S,4R)-1-((S)-2-(tert-butyl)-20-(2-(((2S,4R)-1-((S)-2-(1-cyanocyclopropane-1-carboxamido)-3,3-dimethylbutanoyl)-4-hydroxypyrrolidine-2-carboxamido)methyl)-5-(4-methylthiazol-5-yl)phenoxy)-4-oxo-6,9,12,15,18-pentaoxa-3-azaicosanoyl)-4-hydroxy-N-(4-(4-methylthiazol-5-yl)benzyl)pyrrolidine-2-carboxamide] | 117 ± 25 | -9.5 | -6.4 ± 0.2 | 1.7 | -3.1 | 0.934 ± 0.005 |  |  |  |  | 
2 | CC(=O)N[C@H](C(=O)N1C[C@H](O)C[C@H]1C(=O)NCc1ccc(-c2scnc2C)cc1OCCOCCOCCOCCOCCOCC(=O)N[C@H](C(=O)N1C[C@H](O)C[C@H]1C(=O)NCc1ccc(-c2scnc2C)cc1)C(C)(C)C)C(C)(C)C [CMP112, (2S,4R)-1-((S)-2-acetamido-3,3-dimethylbutanoyl)-4-hydroxy-N-(2-(((S)-19-((2S,4R)-4-hydroxy-2-((4-(4-methylthiazol-5-yl)benzyl)carbamoyl)pyrrolidine-1-carbonyl)-20,20-dimethyl-17-oxo-3,6,9,12,15-pentaoxa-18-azahenicosyl)oxy)-4-(4-methylthiazol-5-yl)benzyl)pyrrolidine-2-carboxamide] | 235 ± 22 | -9.1 | -14.8 ± 0.2 | 0.8 | 5.8 | 0.498 ± 0.006 |  |  |  |  | 
3 | CC(=O)N[C@H](C(=O)N1C[C@H](O)C[C@H]1C(=O)NCc1ccc(-c2scnc2C)cc1OCCOCCOCCOCCOCCOc1cc(-c2scnc2C)ccc1CNC(=O)[C@@H]1C[C@@H](O)CN1C(=O)[C@@H](NC(C)=O)C(C)(C)C)C(C)(C)C [CMP106, (2S,2′S,4R,4′R)—N,N′-((((3,6,9,12-tetraoxatetradecane-1,14-diyl)bis(oxy))bis(4-(4-methylthiazol-5-yl)-2,1-phenylene))bis(methylene))bis(1-((S)-2-acetamido-3,3-dimethylbutanoyl)-4-hydroxypyrrolidine-2-carboxamide)] | 111 ± 8 | -9.5 | -12.6 ± 0.1 | 1.7 | 3.1 | 0.535 ± 0.004 |  |  |  |  | 
4 | CC(=O)N[C@H](C(=O)N1C[C@H](O)C[C@H]1C(=O)NCc1ccc(-c2scnc2C)cc1)C(C)(C)C [VH032, reference compound] |  |  |  |  |  |  | completely ineffective | ~100 |  |  | 
5 | Cc1ncsc1-c1ccc(CNC(=O)[C@@H]2C[C@H](O)CN2C(=O)[C@@H](NC(=O)COCCOCCOCCOCCOCCOCC(=O)N[C@H](C(=O)N2C[C@@H](O)C[C@H]2C(=O)NCc2ccc(-c3scnc3C)cc2)C(C)(C)C)C(C)(C)C)cc1 [CMP98, N^1,N^20-bis((S)-1-((2S,4S)-4-hydroxy-2-((4-(4-methylthiazol-5-yl)benzyl)carbamoyl)pyrrolidin-1-yl)-3,3-dimethyl-1-oxobutan-2-yl)-3,6,9,12,15,18-hexaoxaicosanediamide] |  |  |  |  |  |  |  |  | no shift | unable to induce degradation of VHL | binding was not detected
6 | Cc1ncsc1-c1ccc(CNC(=O)[C@@H]2C[C@@H](O)CN2C(=O)[C@@H](NC(=O)C2(C#N)CC2)C(C)(C)C)c(OCCOCCOCCOCCOCCOc2cc(-c3scnc3C)ccc2CNC(=O)[C@@H]2C[C@@H](O)CN2C(=O)[C@@H](NC(=O)C2(C#N)CC2)C(C)(C)C)c1 [CMP108, (2S,2′S,4R,4′R)—N,N′-((((3,6,9,12-tetraoxatetradecane-1,14-diyl)bis(oxy))bis(4-(4-methylthiazol-5-yl)-2,1-phenylene))bis(methylene))bis(1-((S)-2-(1-cyanocyclopropane-1-carboxamido)-3,3-dimethylbutanoyl)-4-hydroxypyrrolidine-2-carboxamide)] |  |  |  |  |  |  |  |  |  |  | data could not be fitted to a binding curve
